Values quoted from earlier work, collected in patent US20210251906A1, “[…]-RELEASE FORMULATIONS” (Mylan Inc., priority 2018, published 2021).

Assays:
[1] = in vivo
[2] = in water and in basic and acidic aqueous solutions

CC(C)C[C@H](CN)CC(=O)O [Pregabalin, (S)-3-(aminomethyl)-5-methylhexanoic acid]
Elimination half-life [1]: about 6.3 hours | Solubility [2]: freely soluble
